Experimental data published in patent publication US20240158446A1, “CYCLIC COMPOUND HAVING SELECTIVE INHIBITORY ACTION ON KRAS OVER HRAS AND NRAS” (CHUGAI SEIYAKU KABUSHIKI KAISHA, priority 2021, published 2024).
*1 amine or outer side, *2 acyl side, *3 side chain or, on linkers, in order; H or OH if unused. Where a SMILES comes first, the peptide text is derived from it. Bridges are numbered along the chain shown (N, C = ends). [ ]: non-standard residue; d: D form. The star is where a group is joined. hPhe(3-Cl-4-CF3) = N[C@@H](CCc1ccc(C(F)(F)F)c(Cl)c1)C(=O)O; X19 = CCCN([C@@H](CC1CCC(F)(F)CC1)C(=O)[*:2])[*:1]; NMeGly(cPent) = CN[C@H](C(=O)O)C1CCCC1; NMeD = CN[C@@H](CC(=O)O)C(=O)O; NMeL = CN[C@@H](CC(C)C)C(=O)O; Morpholide = C1CN(*)CCO1; NMeA = CN[C@@H](C)C(=O)O; Ac5c = NC1(C(=O)O)CCCC1; Aze = O=C(O)[C@@H]1CCN1; Sar = CNCC(=O)O

Experiments:
[1] = target: GDP-bound KRAS wild-type protein (Homo sapiens, UniProt P01116); assay: Binding to KRAS by surface plasmon resonance (SPR), Single Cycle Kinetics; conditions: SPR Single Cycle Kinetics, GDP-bound KRAS wild-type protein, 1:1 binding model; read-out: KRAS KD
[2] = target: GDP-bound NRAS wild-type protein (Homo sapiens, UniProt P01111); assay: Binding to NRAS by surface plasmon resonance (SPR), Single Cycle Kinetics; conditions: SPR, GDP-bound NRAS wild-type protein vs GDP-bound KRAS wild-type protein
[3] = target: GDP-bound HRAS wild-type protein (Homo sapiens, UniProt P01112); assay: Binding to HRAS by surface plasmon resonance (SPR), Single Cycle Kinetics; conditions: SPR, GDP-bound HRAS wild-type protein vs GDP-bound KRAS wild-type protein
Sequence of GDP-bound HRAS wild-type protein (P01112 whole entry): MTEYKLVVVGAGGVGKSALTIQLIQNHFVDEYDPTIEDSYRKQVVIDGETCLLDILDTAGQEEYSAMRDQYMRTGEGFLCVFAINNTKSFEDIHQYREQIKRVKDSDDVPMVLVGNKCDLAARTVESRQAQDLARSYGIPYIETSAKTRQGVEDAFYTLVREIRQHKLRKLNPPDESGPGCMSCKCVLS

Sequence of GDP-bound KRAS wild-type protein (P01116 whole entry): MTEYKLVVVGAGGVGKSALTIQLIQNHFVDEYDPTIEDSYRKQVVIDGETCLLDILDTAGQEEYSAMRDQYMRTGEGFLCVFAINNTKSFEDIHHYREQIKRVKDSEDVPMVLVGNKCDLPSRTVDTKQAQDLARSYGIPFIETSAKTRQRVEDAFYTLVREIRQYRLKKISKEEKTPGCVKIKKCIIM
Sequence of GDP-bound NRAS wild-type protein (P01111 whole entry): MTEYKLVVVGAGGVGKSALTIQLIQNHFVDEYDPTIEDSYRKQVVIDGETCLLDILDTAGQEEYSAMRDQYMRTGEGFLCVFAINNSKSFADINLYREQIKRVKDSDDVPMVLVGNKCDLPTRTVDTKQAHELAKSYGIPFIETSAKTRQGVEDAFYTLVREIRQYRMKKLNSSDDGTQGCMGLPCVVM

Compound	Kd [1] [nM]	NRAS/KRAS (ratio of KD value with respect to NRAS to KD value with respect to KRAS) [2]	HRAS/KRAS (ratio of KD value with respect to HRAS to KD value with respect to KRAS) [3]
CCCN1C(=O)[C@@H]2CCN2C(=O)[C@H](C)N(C)C(=O)[C@H]([C@@H](C)CC)NC(=O)[C@H](CC(C)C)N(C)C(=O)C[C@@H](C(=O)N2CCOCC2)N(C)C(=O)[C@H](C2CCCC2)N(C)C(=O)C2(CCCC2)NC(=O)[C@@H]2CCCN2C(=O)[C@H](CCc2ccc(C(F)(F)F)c(Cl)c2)NC(=O)CN(C)C(=O)[C@@H]1CC1CCC(F)(F)CC1 [PP0527] ([NMeL]I[NMeA][Aze][X19][Sar][hPhe(3-Cl-4-CF3)]P[Ac5c][NMeGly(cPent)][NMeD]-Morpholide; lactam N-11)	0.21	C (A compound having a KD ratio of 0.1 or more and less than 3 is denoted as C)	C (A compound having a KD ratio of 0.1 or more and less than 3 is denoted as C)
CC[C@H](C)[C@@H]1NC(=O)[C@H](CC(C)C)N(C)C(=O)C[C@@H](C(=O)N2CCOCC2)N(C)C(=O)[C@H](C2CCCC2)N(C)C(=O)C2(CCCC2)NC(=O)[C@@H]2CCCN2C(=O)[C@H](CCc2ccc(C(F)(F)F)c(Cl)c2)NC(=O)CN(C)C(=O)[C@H](Cc2ccc(Cl)cc2)N2CC=CC[C@@H](C2=O)N(C)C(=O)CN(C)C1=O [PP0533]	0.17	C (A compound having a KD ratio of 0.1 or more and less than 3 is denoted as C)	C (A compound having a KD ratio of 0.1 or more and less than 3 is denoted as C)
CC[C@H](C)[C@@H]1NC(=O)[C@H](CC(C)C)N(C)C(=O)C[C@@H](C(=O)N2CCOCC2)N(C)C(=O)[C@H](C2CCCC2)N(C)C(=O)C2(CCCC2)NC(=O)[C@@H]2CCCN2C(=O)[C@H](CCc2ccc(C(F)(F)F)c(Cl)c2)NC(=O)CN(C)C(=O)[C@H](Cc2ccc(OC)cc2)N2CCCC[C@@H](C2=O)N(C)C(=O)CN(C)C1=O [PP0534]	0.16	B (a compound having 3 or more and less than 10 is denoted as B)	B (a compound having 3 or more and less than 10 is denoted as B)
CC[C@H](C)[C@@H]1NC(=O)[C@H](CC(C)C)N(C)C(=O)C[C@@H](C(=O)N2CCOCC2)N(C)C(=O)[C@H](C2CCCC2)N(C)C(=O)C2(CCCC2)NC(=O)[C@@H]2CCCN2C(=O)[C@H](CCc2ccc(C(F)(F)F)c(Cl)c2)NC(=O)CN(C)C(=O)[C@H](Cc2ccc(OC)cc2)N2CC=CC[C@@H](C2=O)N(C)C(=O)CN(C)C1=O [PP0535]	0.5	C (A compound having a KD ratio of 0.1 or more and less than 3 is denoted as C)	B (a compound having 3 or more and less than 10 is denoted as B)
CC[C@H](C)[C@@H]1NC(=O)[C@H](CC(C)C)N(C)C(=O)C[C@@H](C(=O)N2CCOCC2)N(C)C(=O)[C@H](C2CCCC2)N(C)C(=O)C2(CCCC2)NC(=O)[C@@H]2CCCN2C(=O)[C@H](CCc2ccc(C(F)(F)F)c(Cl)c2)NC(=O)CN(C)C(=O)[C@H](Cc2ccc(OC(F)(F)F)cc2)N2CCCC[C@@H](C2=O)N(C)C(=O)CN(C)C1=O [PP0536]	0.63	B (a compound having 3 or more and less than 10 is denoted as B)	B (a compound having 3 or more and less than 10 is denoted as B)
